Experimental data taken from patent US20260062422A1 (Halda Therapeutics OpCo, Inc., priority 2022, published 2026).

Columns and labels:
[1] = molecular target: T1, progesterone receptor ligand binding domain (LBD) (Homo sapiens, UniProt P06401); assay: FP assay (PolarScreen Progesterone Receptor Competitor Assay) for binding to progesterone receptor LBD; conditions: GST-tagged PR LBD, Fluormone tracer, fluorescence polarization, 2 hours; Table 17
T1 construct: GST-tagged PR LBD, Fluormone tracer, and compound were mixed; purchased Life Technologies A15905 or a15906
T1 sequence (P06401 679-913 limits assumed): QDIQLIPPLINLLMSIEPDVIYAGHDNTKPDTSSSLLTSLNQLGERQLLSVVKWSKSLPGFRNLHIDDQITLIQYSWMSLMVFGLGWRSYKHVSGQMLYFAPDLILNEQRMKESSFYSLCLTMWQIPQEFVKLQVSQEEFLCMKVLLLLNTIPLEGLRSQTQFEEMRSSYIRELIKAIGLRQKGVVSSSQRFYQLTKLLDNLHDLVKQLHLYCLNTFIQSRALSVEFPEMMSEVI
Description: Compounds were tested using the PolarScreen™ Progesterone Receptor Competitor Assay Kit (Life Technologies Cat #A15905 or a15906), as per the manufacturer's instructions. Briefly, GST-tagged PR LBD, Fluormone tracer, and compound were mixed and incubated for 2 hours at room temperature in the dark. Following incubation, the plates were spun at 3000×g for 30 seconds, then sealed with an optical adhesive cover, and fluorescence polarization was measured using appropriate excitation and emission filters with an EnVision Plate Reader (Perkin Elmer). Compound concentration vs. mP value were plotted in Prism (GraphPad). A four-parameter non-linear regression curve fit was applied to dose-response data to determine the half-maximal inhibitory concentration (IC50) for each test compound.

T47D cells = assay: Cellular growth inhibition assay for T47D cells, CellTiter-Glo; assay type: cell-based, human; conditions: Homo sapiens, T47D, 72 h, 72 hours treatment, CellTiter-Glo 2.0 cell viability
How it was run: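 Luminescence from CellTiter-Glo 2.0 after 72 h of compound exposure gives the viability signal. Cells grew in insulin-supplemented (0.2 units/mL) DMEM with 10% FBS and were treated one day after seeding at 0.5% DMSO. GI50 values come from four-parameter nonlinear regression.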

VCaP cells = assay: Cellular growth inhibition assay for VCaP cells, CellTiter-Glo; assay type: cell-based, human; conditions: Homo sapiens, VCaP, 72 h, 72 hours treatment, CellTiter-Glo 2.0
How it was run: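 GI50 values come from four-parameter curve fits of luminescence data normalized to a zero baseline. Compound, in medium with 0.5% DMSO, was added one day after plating and left for 72 h before CellTiter-Glo 2.0 addition.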

progesterone receptor = molecular target: T2, progesterone receptor (Homo sapiens, UniProt P06401); assay: PR Human Progesterone NHR Binding (Agonist Radioligand) Assay, T47D cytosol; conditions: T47D cytosolic fractions, 0.5 nM [3H]progesterone, 1 hour at 4° C., Table 16
T2 construct: host or cells: T47D cells (cytosolic fraction)
T2 sequence (P06401 1-933): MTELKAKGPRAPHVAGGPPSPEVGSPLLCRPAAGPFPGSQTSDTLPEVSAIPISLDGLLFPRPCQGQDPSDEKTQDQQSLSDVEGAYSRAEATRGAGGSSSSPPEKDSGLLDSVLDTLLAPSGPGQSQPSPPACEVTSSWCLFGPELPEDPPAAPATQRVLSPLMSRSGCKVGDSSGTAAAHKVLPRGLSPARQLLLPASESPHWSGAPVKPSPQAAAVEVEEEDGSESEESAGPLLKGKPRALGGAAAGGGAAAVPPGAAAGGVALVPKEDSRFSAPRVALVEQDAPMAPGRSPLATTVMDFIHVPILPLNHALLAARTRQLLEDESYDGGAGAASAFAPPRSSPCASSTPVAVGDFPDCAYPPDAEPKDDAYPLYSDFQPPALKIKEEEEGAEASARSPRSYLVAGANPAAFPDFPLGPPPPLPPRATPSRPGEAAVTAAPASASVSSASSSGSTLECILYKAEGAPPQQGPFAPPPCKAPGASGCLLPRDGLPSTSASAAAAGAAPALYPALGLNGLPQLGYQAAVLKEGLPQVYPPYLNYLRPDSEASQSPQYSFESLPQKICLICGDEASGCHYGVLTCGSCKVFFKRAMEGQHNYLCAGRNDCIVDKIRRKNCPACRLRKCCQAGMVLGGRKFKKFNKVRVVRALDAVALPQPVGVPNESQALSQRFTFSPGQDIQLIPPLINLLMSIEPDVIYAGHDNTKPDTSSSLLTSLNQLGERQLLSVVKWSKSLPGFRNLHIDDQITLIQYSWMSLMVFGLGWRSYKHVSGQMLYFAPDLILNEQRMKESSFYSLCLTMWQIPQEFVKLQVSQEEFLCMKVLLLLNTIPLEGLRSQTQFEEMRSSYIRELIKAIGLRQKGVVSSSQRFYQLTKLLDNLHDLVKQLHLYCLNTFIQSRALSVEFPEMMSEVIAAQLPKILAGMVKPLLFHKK
Description: Compounds were tested using the PR Human Progesterone NHR Binding (Agonist Radioligand) Assay, Cerep at Eurofins Discovery using a modified version of the protocol from Sarup et al. (Cancer Res 1988; 48:5071-5078). Briefly, cytosolic fractions of T47D cells were incubated with 0.5 nM [^3H]progesterone for 1 hour at 4° C. in the absence or presence of the test compound. Nonspecific binding was determined in the presence of 1 μM promegestone. Reactions were subjected to scintillation counting. Results are expressed as a percent inhibition of the control radioligand specific binding.

androgen receptor = molecular target: T3, androgen receptor (Homo sapiens, UniProt P10275); assay: Assay for binding affinity to androgen receptor ([3H]methyltrienolone radioligand, cell cytosol); conditions: 1 nM [3H]methyltrienolone, 24 hours at 4° C., Table 5
T3 sequence (P10275 1-920 T878A): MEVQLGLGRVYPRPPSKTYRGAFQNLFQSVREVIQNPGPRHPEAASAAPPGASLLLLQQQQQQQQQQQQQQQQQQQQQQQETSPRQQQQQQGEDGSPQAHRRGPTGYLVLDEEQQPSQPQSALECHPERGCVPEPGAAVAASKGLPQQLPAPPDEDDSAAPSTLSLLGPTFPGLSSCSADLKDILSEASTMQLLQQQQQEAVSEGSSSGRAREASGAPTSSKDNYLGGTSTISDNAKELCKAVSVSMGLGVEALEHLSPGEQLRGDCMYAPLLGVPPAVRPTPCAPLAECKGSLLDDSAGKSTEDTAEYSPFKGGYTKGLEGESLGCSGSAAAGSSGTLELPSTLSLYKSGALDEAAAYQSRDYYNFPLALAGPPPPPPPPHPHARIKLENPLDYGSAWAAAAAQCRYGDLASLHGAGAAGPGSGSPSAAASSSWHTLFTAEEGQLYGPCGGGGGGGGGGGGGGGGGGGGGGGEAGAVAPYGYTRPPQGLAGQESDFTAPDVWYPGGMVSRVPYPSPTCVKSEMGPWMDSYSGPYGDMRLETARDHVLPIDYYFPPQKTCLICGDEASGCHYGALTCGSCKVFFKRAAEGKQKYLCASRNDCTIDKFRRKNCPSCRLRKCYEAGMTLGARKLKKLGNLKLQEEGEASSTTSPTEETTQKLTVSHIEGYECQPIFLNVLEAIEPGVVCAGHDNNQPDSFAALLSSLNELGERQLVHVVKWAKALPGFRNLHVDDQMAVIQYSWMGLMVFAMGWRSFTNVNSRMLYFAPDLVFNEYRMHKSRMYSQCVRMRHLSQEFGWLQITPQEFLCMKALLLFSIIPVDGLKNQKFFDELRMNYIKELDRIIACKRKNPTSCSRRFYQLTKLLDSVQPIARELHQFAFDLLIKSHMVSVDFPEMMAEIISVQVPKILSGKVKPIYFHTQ
Description: Fractions of cell cytosol ([…] cell/point) were incubated for 24 hours at 4° C. with 1 nM [^3H]methyltrienolone in the absence or presence of the test compound in a buffer containing 25 mM Hepes-Tris (pH 7.4), 1 mM EDTA, 10 mM Na2MoO4, 2 mM DTT, 5 μM triamcinolone acetonide, and 10% glycerol. Nonspecific binding was determined in the presence of 1 μM testosterone. Following incubation, the samples were filtered rapidly under vacuum through glass fiber filters (GF/B, Packard) presoaked with 0.3% PEI and rinsed several times with ice-cold 50 mM Tris-HCl using a 96-sample cell harvester (Unifilter, Packard). The filters were dried then counted for radioactivity in a scintillation counter (Topcount, Packard) using a scintillation cocktail (Microscint 0, Packard). The results are expressed as a percent inhibition of the control radioligand specific binding. The standard reference compound is testosterone, which is tested in each experiment at several concentrations to obtain a competition curve from which its IC50 is calculated.

[2] = system: T-Rex 293 cell line SC3 cells lacking increased expression of androgen receptor protein; assay: Cellular growth inhibition, T-Rex 293 SC3 cells without doxycycline, CellTiter-Glo; assay type: cell-based; conditions: 72 h, T-Rex 293 SC3 cells not exposed to doxycycline, CellTiter-Glo 2.0
How it was run: (§1)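 GI50 came from a four-parameter fit of CellTiter-Glo 2.0 luminescence after 72 h compound exposure (0.5% DMSO, 37 °C), dosing 24 h post-seeding. SC3 clone cells (2500/well), transfected with wild-type androgen receptor, grew in charcoal-stripped serum medium lacking phenol red, induced with 10 ng/mL doxycycline or left uninduced.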

BRD4-BD2 = molecular target: T4, BRD4-BD2 (Homo sapiens, UniProt O60885); assay: bromoKdELECT assay for binding affinity to BRD4-BD2; conditions: Table 7
T4 construct: made in house; host or cells: T7 phage grown in an E. coli host derived from BL21
Description: (§2) Compounds were tested using a bromoKdELECT assay. T7 phage strains displaying bromodomains were grown in parallel in 24-well blocks in an E. coli host derived from the BL21 strain. E. coli were grown to log-phase and infected with T7 phage from a frozen stock (multiplicity of infection=0.4) and incubated with shaking at 32° C. until lysis (90-150 minutes). The lysates were centrifuged (5,000×g) and filtered (0.2 μm) to remove cell debris. Streptavidin-coated magnetic beads were treated with biotinylated small molecule or acetylated peptide ligands for 30 minutes at room temperature to generate affinity resins for bromodomain assays. The liganded beads were blocked with excess biotin and washed with blocking buffer (SeaBlock (Pierce), 1% BSA, 0.05% Tween 20, 1 mM DTT) to remove unbound ligand and to reduce nonspecific phage binding. Binding reactions were assembled by combining bromodomains, liganded affinity beads, and test compounds in 1× binding buffer (17% SeaBlock, 0.33×PBS, 0.04% Tween 20, 0.02% BSA, 0.004% Sodium azide, 7.4 mM DTT). Test compounds were prepared as 1000× stocks in 100% DMSO. Kds were determined using an 11-point 3-fold compound dilution series with one DMSO control point. All compounds for Kd measurements are distributed by acoustic transfer (non-contact dispensing) in 100% DMSO. The compounds were then diluted directly into the assays such that the final concentration of DMSO was 0.09%. All reactions performed in polypropylene 384-well plates. Each was a final volume of 0.02 ml. The assay plates were incubated at room temperature with shaking for 1 hour and the affinity beads were washed with wash buffer (1×PBS, 0.05% Tween 20). The beads were then resuspended in elution buffer (1×PBS, 0.05% Tween 20, 2 μM non-biotinylated affinity ligand) and incubated at room temperature with shaking for 30 minutes. The bromodomain concentration in the eluates was measured by qPCR.

BRD4-BD1 = molecular target: T5, BRD4-BD1 (Homo sapiens, UniProt O60885); assay: bromoKdELECT assay for binding affinity to BRD4-BD1; conditions: Table 6
T5 construct: made in house; host or cells: T7 phage grown in an E. coli host derived from BL21
Description: as §2, with “[…]” for “μM”

[3] = system: T-Rex 293 cell line SC3 cells having increased expression of androgen receptor protein due to exposure to doxycycline; assay: Cellular growth inhibition, T-Rex 293 SC3 cells with doxycycline (androgen receptor induced), CellTiter-Glo; assay type: cell-based; conditions: 72 h, T-Rex 293 SC3 cells with 10 ng/mL doxycycline (increased androgen receptor expression)
How it was run: as §1

IC50 [1] [nM] | GI50 (T47D cells) [nM] | GI50 (VCaP cells) [nM] | Ki (progesterone receptor) [nM] | Kd (androgen receptor) [nM] | Kd (BRD4-BD2) [nM] | Kd (BRD4-BD1) [nM] | SMILES | GI50 [2] [nM] | GI50 [3] [nM]
50 to 500 | 500 to 1500 | < 500 | – | – | – | – | Cc1sc2c(c1C)C(c1ccc(CCCOC3CCN(c4ncc5c(n4)CN([C@H]4C(C)(C)[C@H](Oc6ccc(C#N)c(Cl)c6)C4(C)C)C5=O)CC3)cc1)=NC(Cc1ncco1)c1nnc(C)n1-2 (some centres unmarked) [Compound I-134] | – | –
– | < 500 | – | < 50 | 50 to 500 | – | – | Cc1sc2c(c1C)C(c1ccc(N3CC(CC4CN(c5cnc(C(=O)N[C@H]6C(C)(C)[C@H](Oc7ccc(C#N)c(Cl)c7)C6(C)C)cn5)C4)C3)cc1)=N[C@@H](C)c1nnc(C)n1-2 [Compound I-503] | – | –
– | – | – | – | – | < 50 | 500 to 2500 | Cc1sc2c(c1C)C(c1ccc(Cl)cc1)=N[C@@H](CC(=O)NCCOCCOCCOC1CCN(c3ncc(C(=O)N[C@H]4C(C)(C)[C@H](Oc5ccc(C#N)c(Cl)c5)C4(C)C)cn3)C1)c1nnc(C)n1-2 (some centres unmarked) [Compound I-16] | 1500 to 3000 | < 500
– | – | – | – | < 50 | – | 500 to 2500 | Cc1sc2c(c1C)C(c1ccc(Cl)cc1)=N[C@@H](CC(=O)NCCOCCOCCOC1CCCN(c3ncc(C(=O)N[C@H]4C(C)(C)[C@H](Oc5ccc(C#N)c(Cl)c5)C4(C)C)cn3)C1)c1nnc(C)n1-2 (some centres unmarked) [Compound I-15] | 1500 to 3000 | < 500
